Laboratory results: patent US20090182020A1, “SUBSTITUTED BIS(HETERO)AROMATIC N--ETHYLPROPIOLAMIDES AND USE THEREOF FOR PRODUCTION OF MEDICAMENTS” (GRUNENTHAL GMBH, priority 2005, published 2009)

biological target: T1, mGluR5 receptor (pig) (Sus scrofa, UniProt I3LUI7); test: [3H]-MPEP bond in the mGluR5 receptor bond assay (pig brain homogenate); assay type: binding; conditions: 5 nM [3H]-MPEP; pig brain homogenate
T1 construct: 450 μg protein from brain homogenate is incubated with 5 nM ^3[H]-MPEP; from tissue; host or cells: pig brain halves without medulla, cerebellum and pons
T1 sequence (I3LUI7 19-1212): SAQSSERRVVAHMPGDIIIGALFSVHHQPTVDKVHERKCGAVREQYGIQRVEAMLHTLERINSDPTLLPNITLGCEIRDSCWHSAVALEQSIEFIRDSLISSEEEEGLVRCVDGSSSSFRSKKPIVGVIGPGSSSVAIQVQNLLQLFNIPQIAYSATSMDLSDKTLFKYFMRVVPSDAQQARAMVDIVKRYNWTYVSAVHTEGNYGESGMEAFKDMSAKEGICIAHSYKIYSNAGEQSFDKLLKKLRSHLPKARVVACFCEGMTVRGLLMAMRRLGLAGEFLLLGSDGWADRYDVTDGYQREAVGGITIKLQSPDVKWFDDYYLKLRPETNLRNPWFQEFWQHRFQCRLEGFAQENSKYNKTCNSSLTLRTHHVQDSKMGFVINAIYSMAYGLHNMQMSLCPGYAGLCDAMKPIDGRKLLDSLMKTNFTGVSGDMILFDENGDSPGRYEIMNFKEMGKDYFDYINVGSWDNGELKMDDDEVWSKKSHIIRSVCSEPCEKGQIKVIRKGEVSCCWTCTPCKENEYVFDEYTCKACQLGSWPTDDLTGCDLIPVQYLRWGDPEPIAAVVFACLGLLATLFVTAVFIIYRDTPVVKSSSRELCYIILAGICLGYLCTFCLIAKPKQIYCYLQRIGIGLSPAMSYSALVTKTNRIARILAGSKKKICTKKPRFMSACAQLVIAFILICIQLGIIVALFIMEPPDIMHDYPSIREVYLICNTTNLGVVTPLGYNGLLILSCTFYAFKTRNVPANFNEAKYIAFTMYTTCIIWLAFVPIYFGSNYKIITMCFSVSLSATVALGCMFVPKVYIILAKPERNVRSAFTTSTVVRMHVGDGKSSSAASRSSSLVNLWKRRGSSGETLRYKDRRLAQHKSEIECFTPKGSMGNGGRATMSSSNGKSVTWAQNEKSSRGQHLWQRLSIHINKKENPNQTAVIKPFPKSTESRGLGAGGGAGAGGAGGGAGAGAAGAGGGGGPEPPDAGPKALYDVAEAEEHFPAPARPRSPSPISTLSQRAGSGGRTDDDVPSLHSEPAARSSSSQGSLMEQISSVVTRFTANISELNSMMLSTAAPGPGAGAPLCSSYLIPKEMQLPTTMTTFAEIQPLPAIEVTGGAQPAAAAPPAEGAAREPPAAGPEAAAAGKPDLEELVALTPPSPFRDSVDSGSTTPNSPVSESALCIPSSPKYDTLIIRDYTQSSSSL
Method: I. Method for Determining the Inhibition of the [^3H]-MPEP Bond in the mGluR5 Receptor Bond Assay
Pig brain homogenate is produced by homogenisation (Polytron PT 3000, Kinematica AG, 10,000 rpm for 90 seconds) of pig brain halves without medulla, cerebellum and pons in buffer pH 8.0 (30 mM Hepes, Sigma, order no. H3375+1 tablet complete to 100 ml, Roche Diagnostics, order no. 1836145) in the ratio 1:20 (brain weight/volume) and differential centrifugation at 900×g and 40,000×g. In each case, 450 μg protein from brain homogenate is incubated with 5 nM ^3[H]-MPEP (Tocris, order no. […]
Thereafter, the batches are filtered with the help of a Brandel Cell Harvester (Brandel, TYP Robotic 9600) on unifilter plates with glass fibre filter mats (Perkin Elmer, order no. 6005177) and subsequently washed with buffer (as above) 3 times with in each case 250 μl per sample. The filter plates are subsequently dried for 60 min at 55° C. 30 μL Ultima Gold™ scintillator (Packard BioScience, order no. 6013159) is subsequently added per well and the samples are measured after 3 hours on the β-counter (Mikrobeta, Perkin Elmer). The unspecific bond is determined by addition of 10 μM MPEP (Tocris, order no. 1212).

Compound | IC50 [nM]
CN(CCc1ccccc1F)C(=O)C#Cc1cccc(Cl)c1 [Example 218, 3-(3-chlorophenyl)-N-(2-fluorophenethyl)-N-methylpropiolamide] | 16
CN(CCc1ccc(F)cc1)C(=O)C#Cc1cccc(Cl)c1 [Example 220, 3-(3-chlorophenyl)-N-(4-fluorophenethyl)-N-methylpropiolamide] | 9
O=C(C#Cc1cccc(Cl)c1)NCCc1cccc(F)c1 [Example 216, 3-(3-chlorophenyl)-N-(3-fluorophenethyl)propiolamide] | 12
Cc1cccc(CCNC(=O)C#Cc2cccc(Cl)c2)c1 [Example 224, 3-(3-chlorophenyl)-N-(3-methylphenethyl)propiolamide] | 40
O=C(C#Cc1cccc(Cl)c1)NCCc1ccccc1C(F)(F)F [Example 250, 3-(3-chlorophenyl)-N-(2-(trifluoromethyl)phenethyl)propiolamide] | 33
O=C(C#Cc1cccc(Cl)c1)NCCc1ccc(F)cc1 [Example 217, 3-(3-chlorophenyl)-N-(4-fluorophenethyl)propiolamide] | 140
CC(Cc1ccccc1)NC(=O)C#Cc1cccc(Cl)c1 (centres unmarked) [Example 242, 3-(3-chlorophenyl)-N-(1-phenylpropane-2-yl)propiolamide] | 2
O=C(C#Cc1cccc(Cl)c1)NCCn1cccc1 [Example 230, N-(2-(1H-pyrrol-1-yl)ethyl)-3-(3-chlorophenyl)propiolamide] | 190
O=C(C#Cc1cccc(Cl)c1)NCCn1cccn1 [Example 231, N-(2-(1H-pyrazol-1-yl)ethyl)-3-(3-chlorophenyl)propiolamide] | 140
O=C(C#Cc1cccc(Cl)c1)NCCc1ccncc1 [Example 4, 3-(3-chlorophenyl)-N-(2-(pyridine-4-yl)ethyl)propiolamide] | 2000
CC(Cc1cccnc1)NC(=O)C#Cc1cccc(Cl)c1 (centres unmarked) [Example 246, 3-(3-chlorophenyl)-N-(1-(pyridine-3-yl)propane-2-yl)propiolamide] | 10
CN(CCc1cccs1)C(=O)C#Cc1cccc(Cl)c1 [Example 245, 3-(3-chlorophenyl)-N-methyl-N-(2-(thiophene-2-yl)ethyl)propiolamide] | 11
Cc1ccccc1CCNC(=O)C#Cc1cccc(Cl)c1 [Example 223, 3-(3-chlorophenyl)-N-(2-methylphenethyl)propiolamide] | 13
CN(CCc1ccccc1C(F)(F)F)C(=O)C#Cc1cccc(Cl)c1 [Example 251, 3-(3-chlorophenyl)-N-methyl-N-(2-(trifluormethyl)phenethyl)propiolamide] | 28
Cc1ccc(CCN(C)C(=O)C#Cc2cccc(Cl)c2)cc1 [Example 228, 3-(3-chlorophenyl)-N-methyl-N-(4-methylphenethyl)propiolamide] | 280
CN(CCn1cccn1)C(=O)C#Cc1cccc(Cl)c1 [Example 234, N-(2-(1H-pyrazol-1-yl)ethyl)-3-(3-chlorophenyl)-N-methylpropiolamide] | 51
CN(CCc1cccc(F)c1)C(=O)C#Cc1cccc(Cl)c1 [Example 221, 3-(3-chlorophenyl)-N-(3-fluorophenethyl)-N-methylpropiolamide] | 8
Cc1ncccc1CCNC(=O)C#Cc1cccc(Cl)c1 [Example 248, 3-(3-chlorophenyl)-N-(2-(2-methylpyridine-3-yl)ethyl)propiolamide] | 260

same assay, conditions: 10 μM test compound; 5 nM [3H]-MPEP; 450 μg protein pig brain homogenate; 60 min room temperature

Compound | inhibition at 10 µM [%]
O=C(C#Cc1ccccc1F)NCCc1ccccn1 [Example 8, 3-(2-fluorophenyl)-N-(2-(pyridine-2-yl)ethyl)propiolamide] | 70
Cc1cccc(C#CC(=O)NCCc2c[nH]c3ccccc23)c1 [Example 57, N-(2-(1H-indol-3-yl)ethyl)-3-m-tolylpropiolamide] | 91
COc1cccc(C#CC(=O)N(C)CCc2ccccc2)c1 [Example 80, 3-(3-methoxyphenyl)-N-methyl-N-phenethylpropiolamide] | 70
O=C(C#Cc1ccc(F)cc1)NCCc1ccccc1 [Example 72, 3-(4-fluorophenyl)-N-phenethylpropiolamide] | 57
O=C(C#Cc1ccc(F)cc1)NCCc1cccc(Cl)c1 [Example 89, N-(3-chlorophenethyl)-3-(4-fluorophenyl)propiolamide] | 64
O=C(C#Cc1ccccc1)NCCc1ccc(Cl)c(Cl)c1 [Example 101, N-(3,4-dichlorophenethyl)-3-phenylpropiolamide] | 89
COc1cccc(C#CC(=O)NCCc2ccc(F)cc2)c1 [Example 61, N-(4-fluorophenethyl)-3-(3-methoxyphenyl)propiolamide] | 85
COc1cccc(C#CC(=O)NCCc2ccc(C)cc2)c1 [Example 59, 3-(3-methoxyphenyl)-N-(4-methylphenethyl)propiolamide] | 57
O=C(C#Cc1ccccc1)NCCc1ccc(F)cc1 [Example 68, N-(4-fluorophenethyl)-3-phenylpropiolamide] | 90
O=C(C#Cc1ccccc1F)NCCc1cccc(Cl)c1 [Example 148, N-(3-chlorophenethyl)-3-(2-fluorophenyl)propiolamide] | 79
O=C(C#Cc1ccccc1)NCCc1ccc(Cl)cc1 [Example 137, N-(4-chlorophenethyl)-3-phenylpropiolamide] | 67
O=C(C#Cc1cccs1)NCCc1cccc(Cl)c1 [Example 94, N-(3-chlorophenethyl)-3-(thiophene-2-yl)propiolamide] | 84
COc1ccccc1CCNC(=O)C#Cc1ccc(F)c(C)c1 [Example 134, 3-(4-fluoro-3-methylphenyl)-N-(2-methoxyphenethyl)propiolamide] | 77
Cc1ccc(CCNC(=O)C#Cc2cccc(C#N)c2)cc1 [Example 97, 3-(3-cyanophenyl)-N-(4-methylphenethyl)propiolamide] | 96
O=C(C#Cc1ccc(F)cc1)NCCc1ccccn1 [Example 20, 3-(4-fluoro-phenyl)-N-(2-(pyridine-2-yl)ethyl)propiolamide] | 54
O=C(C#Cc1ccc(F)cc1F)NCCc1cccs1 [Example 117, 3-(2,4-difluorophenyl)-N-(2-(thiophene-2-yl)ethyl)propiolamide] | 33

Compound | inhibition at 10 µM [%]
N#Cc1cccc(C#CC(=O)NCCc2ccc(Cl)c(Cl)c2)c1 [Example 104, 3-(3-cyanophenyl)-N-(3,4-dichlorophenethyl)propiolamide] | 84
COc1cccc(C#CC(=O)NCCc2ccccc2)c1 [Example 81, 3-(3-methoxyphenyl)-N-phenethylpropiolamide] | 79
Cc1ccc(CCNC(=O)C#Cc2ccccc2F)cc1 [Example 149, 3-(2-fluorophenyl)-N-(4-methylphenethyl)propiolamide] | 57
COc1cccc(C#CC(=O)NCCc2ccccn2)c1 [Example 6, 3-(3-methoxyphenyl)-N-(2-(pyridine-2-yl)ethyl)propiolamide] | 82
Cc1cccc(C#CC(=O)N(C)CCc2ccccc2)c1 [Example 46, N-methyl-N-phenethyl-3-m-tolylpropiolamide] | 97
CN(CCc1ccccc1)C(=O)C#Cc1ccc(F)cc1F [Example 78, 3-(2,4-difluorophenyl)-N-methyl-N-phenethylpropiolamide] | 69
Cc1cccc(C#CC(=O)NCCc2ccccc2)c1 [Example 84, N-phenethyl-3-m-tolylpropiolamide] | 89
Cc1cc(C#CC(=O)NCCc2ccc(Cl)cc2)ccc1F [Example 135, N-(4-chlorophenethyl)-3-(4-fluoro-3-methylphenyl)propiolamide] | 44
Cc1cc(C#CC(=O)NCCc2cccs2)ccc1F [Example 56, 3-(4-fluoro-3-methylphenyl)-N-(2-(thiophene-2-yl)ethyl)propiolamide] | 54
O=C(C#Cc1ccccc1)NCCc1cccc(Cl)c1 [Example 65, N-(3-chlorophenethyl)-3-phenylpropiolamide] | 97
O=C(C#Cc1ccccc1)NCCc1ccccn1 [Example 11, 3-phenyl-N-(2-(pyridine-2-yl)ethyl)propiolamide] | 81
O=C(C#Cc1cccs1)NCCc1ccc(Cl)cc1 [Example 190, N-(4-chlorophenethyl)-3-(thiophene-2-yl)propiolamide] | 65
O=C(C#Cc1ccc(F)cc1)NCCc1ccc(F)cc1 [Example 92, N-(4-fluorophenethyl)-3-(4-fluorophenyl)propiolamide] | 42
COc1ccccc1CCNC(=O)C#Cc1ccccc1 [Example 136, N-(2-methoxyphenethyl)-3-phenylpropiolamide] | 110
Cc1cccc(C#CC(=O)NCCc2ccc(Cl)c(Cl)c2)c1 [Example 102, N-(3,4-dichlorophenethyl)-3-m-tolylpropiolamide] | 105
O=C(C#Cc1cccs1)NCCc1ccc(Cl)c(Cl)c1 [Example 103, N-(3,4-dichlorophenethyl)-3-(thiophene-2-yl)propiolamide] | 88
